Four molecules from US20030176314A1, “Compounds for the treatment of pain” (priority 2001, published 2003) can be followed below.

The target of one experiment is T1, rat NPFF1 receptor (Rattus norvegicus, UniProt Q9EP86).
T1 construct: expressed in transfected cells; host or cells: not given
The experiment in a line: Functional assay (agonist potency, intrinsic activity) at cloned rat NPFF1 receptor. Type of experiment: cell-based. The note with it: Table 7, intrinsic activity.

The next experiment has as its target T2, rat NPFF2 receptor (Rattus norvegicus, UniProt Q9EQD2).
T2 construct: The full-length NPFF2 was amplified from rat spinal cord cDNA; expressed in transfected cells; host or cells: not given
The experiment in a line: Functional assay (agonist potency, intrinsic activity) at cloned rat NPFF2 receptor. Type of experiment: cell-based. The following applies: Table 7, intrinsic activity.

The target of another experiment is T3, human NPFF2 receptor (Homo sapiens, UniProt Q9Y5X5).
T3 construct: one of these, B089, was determined to be a full length clone with no point mutations; expressed in transfected cells; host or cells: not given
T3 sequence (Q9Y5X5 103-522): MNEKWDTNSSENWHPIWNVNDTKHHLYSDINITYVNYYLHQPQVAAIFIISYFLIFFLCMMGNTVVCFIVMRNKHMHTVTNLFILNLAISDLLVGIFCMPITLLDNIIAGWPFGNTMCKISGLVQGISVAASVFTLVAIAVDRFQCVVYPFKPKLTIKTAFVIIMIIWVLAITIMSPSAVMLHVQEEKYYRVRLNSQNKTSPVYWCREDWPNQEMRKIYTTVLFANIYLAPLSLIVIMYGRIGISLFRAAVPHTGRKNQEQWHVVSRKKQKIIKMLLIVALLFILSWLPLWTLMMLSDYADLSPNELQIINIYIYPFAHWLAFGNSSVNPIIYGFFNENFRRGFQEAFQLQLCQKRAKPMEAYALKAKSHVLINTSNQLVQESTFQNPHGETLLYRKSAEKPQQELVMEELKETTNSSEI
The experiment in a line: Functional assay (agonist potency, intrinsic activity) at cloned human NPFF2 receptor. Type of experiment: cell-based. The note with it: Table 6, intrinsic activity.

Experiment [1] addresses N-methyl-D-aspartate (NMDA) receptor channel complex. Kind of experiment: Binding at native NMDA receptor channels. Also on record: species or system rat. The following applies: Table 8. The protocol: NMDA Receptor Channels: The methods to determine binding affinity at native N-methyl-D-aspartate (NMDA) receptor channels are described in Wong E. H. et al. (1988), the disclosure of which is hereby incorporated by reference in its entirety into this application.
(§1) The binding affinity (Ki) of these compounds were tested according to the protocols described herein at the following receptors; human α1A, α1B, α1D, α2A, α2B, and α2C adrenergic receptors; human Y1, Y2, Y4, and Y5 receptors; and N-Methyl-D-aspartic acid (NMDA) receptor channels. The binding interactions of these compounds were additionally tested at the norepinephrine (NE) transporter (NE uptake) and serotonin (5-hydroxytryptamine (5HT)) transporter (5HT uptake) according to protocols described herein

Experiment [2] concerns the target T4, norepinephrine (NE) transporter (Rattus norvegicus, UniProt Q63380).
T4 construct: evaluated at native, tissue-derived transporters; from tissue
The experiment in a line: Binding at native norepinephrine transporter (NE uptake). The note with it: Table 8. The protocol:
(§2) Transporters: The binding properties of compounds were evaluated at native, tissue-derived transporters, namely serotonin (5HT) transporter and norepinephrine (NE) transporter, according to protocols described in Owens (1997), the disclosure of which is hereby incorporated by reference in its entirety into this application.
as §1

For experiment [3], the target named is T5, serotonin (5HT) transporter (Rattus norvegicus, UniProt P31652).
T5 construct: evaluated at native, tissue-derived transporters; from tissue
T5 sequence (P31652 whole entry): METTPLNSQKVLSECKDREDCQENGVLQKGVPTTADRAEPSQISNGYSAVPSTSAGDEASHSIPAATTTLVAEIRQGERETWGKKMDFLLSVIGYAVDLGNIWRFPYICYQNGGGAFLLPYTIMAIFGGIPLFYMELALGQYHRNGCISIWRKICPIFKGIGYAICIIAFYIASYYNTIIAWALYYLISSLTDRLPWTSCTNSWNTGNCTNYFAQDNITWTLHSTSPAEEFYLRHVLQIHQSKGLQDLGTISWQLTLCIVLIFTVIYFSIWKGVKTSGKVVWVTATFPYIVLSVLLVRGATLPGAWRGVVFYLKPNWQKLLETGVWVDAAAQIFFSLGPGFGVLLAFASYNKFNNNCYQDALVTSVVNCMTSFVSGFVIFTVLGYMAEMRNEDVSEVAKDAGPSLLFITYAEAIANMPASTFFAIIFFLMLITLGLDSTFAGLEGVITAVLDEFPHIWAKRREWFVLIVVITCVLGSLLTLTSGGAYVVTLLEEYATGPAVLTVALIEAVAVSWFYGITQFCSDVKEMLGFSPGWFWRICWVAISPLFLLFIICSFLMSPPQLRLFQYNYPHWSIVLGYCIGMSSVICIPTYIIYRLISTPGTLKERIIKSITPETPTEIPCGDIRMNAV
Kind of experiment: Binding at native serotonin transporter (5HT uptake). The following applies: Table 8. The protocol: as §2, §1

Experiment [4] concerns the target T6, human α2A adrenergic receptor (Homo sapiens, UniProt P08913).
T6 construct: host or cells: LM(tk-) cells, line L-α2A
T6 sequence (P08913 1-465): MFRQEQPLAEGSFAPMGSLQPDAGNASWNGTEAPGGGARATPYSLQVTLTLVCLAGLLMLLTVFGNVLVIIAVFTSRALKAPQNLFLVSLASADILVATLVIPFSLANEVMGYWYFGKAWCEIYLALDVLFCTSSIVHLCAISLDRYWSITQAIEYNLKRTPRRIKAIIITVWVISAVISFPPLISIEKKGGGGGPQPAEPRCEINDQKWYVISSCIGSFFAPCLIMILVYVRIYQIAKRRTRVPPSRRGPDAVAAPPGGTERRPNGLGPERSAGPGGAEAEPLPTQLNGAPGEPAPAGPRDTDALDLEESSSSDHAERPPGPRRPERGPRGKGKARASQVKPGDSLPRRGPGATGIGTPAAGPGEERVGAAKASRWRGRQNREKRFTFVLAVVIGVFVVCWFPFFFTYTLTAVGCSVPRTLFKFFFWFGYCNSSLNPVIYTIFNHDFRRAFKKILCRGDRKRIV
The experiment in a line: Binding at human α2A adrenergic receptor. The note with it: Table 8; read-out: hα2A Ki.
Description: (§3) α2 Human Adrenergic Receptors: To determine the binding of compounds to human α2 receptors, LM(tk−) cell lines stably transfected with the genes encoding the α2A, α2B, and α2C receptors were used. The cell line expressing the α2A receptor is designated L-α2A, and was deposited on Nov. 6, 1992, under ATCC Accession No. CRL 11180. The cell line expressing the α2B receptor is designated L-NGC-α2B, and was deposited on Oct. 25, 1989, under ATCC Accession No. CRL 10275. The cell line expressing the α2C receptor is designated L-α2C, and was deposited on Nov. 6, 1992, under ATCC Accession No. CRL-11181. Cell lysates were prepared as described herin, and suspended in 25 mM glycyiglycine buffer (pH 7.6 at room temperature). Equilibrium competition binding assay were performed using […] (0.5 nM), and nonspecific binding was determined by incubation with 10 μM phentolamine. The bound radioligand was separated by filtration through GF/B filters using a cell harvester.
as §1

In experiment [5] the target is T7, human α2B adrenergic receptor (Homo sapiens, UniProt P18089).
T7 construct: host or cells: LM(tk-) cells, line L-NGC-α2B
T7 sequence (P18089 1-450): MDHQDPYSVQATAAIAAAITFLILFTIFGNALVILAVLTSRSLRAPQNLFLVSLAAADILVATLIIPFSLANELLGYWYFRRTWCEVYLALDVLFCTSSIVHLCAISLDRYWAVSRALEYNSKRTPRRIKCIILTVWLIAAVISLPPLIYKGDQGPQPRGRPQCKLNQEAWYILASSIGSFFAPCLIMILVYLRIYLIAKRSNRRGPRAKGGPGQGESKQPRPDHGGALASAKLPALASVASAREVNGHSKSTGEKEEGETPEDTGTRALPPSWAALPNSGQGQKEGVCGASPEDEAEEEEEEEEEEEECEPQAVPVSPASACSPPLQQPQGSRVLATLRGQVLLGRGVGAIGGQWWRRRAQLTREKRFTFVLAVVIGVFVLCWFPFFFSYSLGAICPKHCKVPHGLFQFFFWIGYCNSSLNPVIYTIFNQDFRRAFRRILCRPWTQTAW
Kind of experiment: Binding at human α2B adrenergic receptor. The note with it: Table 8; read-out: hα2B Ki.
Description: as §3, §1

Experiment [6] concerns the target T8, human α2C adrenergic receptor (Homo sapiens, UniProt P18825).
T8 construct: host or cells: LM(tk-) cells, line L-α2C
T8 sequence (P18825 1-462): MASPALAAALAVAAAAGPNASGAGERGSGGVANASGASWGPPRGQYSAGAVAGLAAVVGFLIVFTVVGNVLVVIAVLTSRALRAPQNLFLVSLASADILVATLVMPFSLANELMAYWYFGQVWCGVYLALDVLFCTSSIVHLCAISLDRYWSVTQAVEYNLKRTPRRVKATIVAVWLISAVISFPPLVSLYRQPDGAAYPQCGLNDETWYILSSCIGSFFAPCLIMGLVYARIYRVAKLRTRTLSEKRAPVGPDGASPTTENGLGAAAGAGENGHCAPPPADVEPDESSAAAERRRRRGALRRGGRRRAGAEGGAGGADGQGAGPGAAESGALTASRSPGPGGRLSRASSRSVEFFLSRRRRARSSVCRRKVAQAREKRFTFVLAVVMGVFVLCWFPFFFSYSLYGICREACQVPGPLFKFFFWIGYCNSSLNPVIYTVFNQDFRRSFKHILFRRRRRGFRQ
Kind of experiment: Binding at human α2C adrenergic receptor. The following applies: Table 8; read-out: hα2C Ki.
Description: as §3, §1

Another experiment concerns the target T9, human Y1 receptor (Homo sapiens, UniProt P25929).
T9 construct: host or cells: 293 cells, line 293-hY1-5
T9 sequence (P25929 1-384): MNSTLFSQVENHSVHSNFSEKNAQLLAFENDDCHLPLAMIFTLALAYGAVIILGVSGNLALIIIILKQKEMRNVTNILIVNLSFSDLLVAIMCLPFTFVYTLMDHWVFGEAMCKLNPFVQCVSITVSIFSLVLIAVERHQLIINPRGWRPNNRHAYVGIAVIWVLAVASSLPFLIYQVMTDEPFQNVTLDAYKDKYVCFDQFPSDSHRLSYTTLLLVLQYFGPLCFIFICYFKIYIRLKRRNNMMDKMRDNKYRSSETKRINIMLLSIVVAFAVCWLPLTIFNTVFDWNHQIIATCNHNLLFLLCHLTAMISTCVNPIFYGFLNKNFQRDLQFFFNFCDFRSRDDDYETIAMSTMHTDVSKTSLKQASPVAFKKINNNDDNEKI
The experiment in a line: Binding at human neuropeptide Y Y1 receptor. The note with it: Table 8; read-out: hY1 Ki.
Description: (§4) Neuropeptide receptors: Stably transfected cell lines which may be used for binding experiments include, for the Y1 receptor, 293-hY1-5 (deposited Jun. 4, 1996, under ATCC Accession No. CRL-12121); for the Y2 receptor, 293-hY2-10 (deposited Jan. 27, 1994, under ATCC Accession No. CRL-11837); for the Y4 receptor, L-hY4-3 (deposited Jan. 11, 1995, under ATCC Accession No. CRL 11779); and for the Y5 receptor, L-hY5-7 (deposited Nov. 15, 1995, under ATCC Accession No. CRL 11995).
(§5) Binding assays using the NPY receptors may be carried out according to the procedures described in U.S. Pat. No. 5,602,024, the disclosure of which is hereby incorporated by reference in its entirety into this application.
as §1

The target of another experiment is T10, human Y2 receptor (Homo sapiens, UniProt P49146).
T10 construct: host or cells: 293 cells, line 293-hY2-10
T10 sequence (P49146 1-381): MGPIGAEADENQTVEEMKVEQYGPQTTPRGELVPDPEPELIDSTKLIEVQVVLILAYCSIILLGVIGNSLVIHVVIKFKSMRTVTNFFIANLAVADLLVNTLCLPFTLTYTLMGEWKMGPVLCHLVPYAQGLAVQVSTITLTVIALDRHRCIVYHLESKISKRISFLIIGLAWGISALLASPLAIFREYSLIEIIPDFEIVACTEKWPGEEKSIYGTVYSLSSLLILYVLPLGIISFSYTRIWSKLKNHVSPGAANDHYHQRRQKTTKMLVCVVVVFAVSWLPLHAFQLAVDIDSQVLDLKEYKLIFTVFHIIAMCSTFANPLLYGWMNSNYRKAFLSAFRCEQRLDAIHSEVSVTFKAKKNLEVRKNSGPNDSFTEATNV
The experiment in a line: Binding at human neuropeptide Y Y2 receptor. The following applies: Table 8; read-out: hY2 Ki.
Description: as §4, §5, §1

The target in a further experiment is T11, human Y4 receptor (Homo sapiens, UniProt P50391).
T11 construct: host or cells: L cells, line L-hY4-3
T11 sequence (P50391 whole entry): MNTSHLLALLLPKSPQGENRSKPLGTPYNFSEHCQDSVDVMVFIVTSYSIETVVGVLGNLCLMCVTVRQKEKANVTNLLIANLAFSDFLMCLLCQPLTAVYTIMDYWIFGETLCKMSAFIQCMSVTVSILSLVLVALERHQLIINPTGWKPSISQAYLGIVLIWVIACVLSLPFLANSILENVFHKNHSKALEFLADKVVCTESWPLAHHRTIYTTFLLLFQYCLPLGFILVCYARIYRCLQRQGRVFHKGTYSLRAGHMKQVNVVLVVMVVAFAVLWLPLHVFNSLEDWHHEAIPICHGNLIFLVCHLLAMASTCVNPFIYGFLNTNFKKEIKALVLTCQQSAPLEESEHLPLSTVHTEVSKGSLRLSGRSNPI
The experiment in a line: Binding at human neuropeptide Y Y4 receptor. The note with it: Table 8; read-out: hY4 Ki.
Description: as §4, §5, §1

For a further experiment, the target named is T12, human Y5 receptor (Homo sapiens, UniProt Q15761).
T12 construct: host or cells: L cells, line L-hY5-7
T12 sequence (Q15761 1-445): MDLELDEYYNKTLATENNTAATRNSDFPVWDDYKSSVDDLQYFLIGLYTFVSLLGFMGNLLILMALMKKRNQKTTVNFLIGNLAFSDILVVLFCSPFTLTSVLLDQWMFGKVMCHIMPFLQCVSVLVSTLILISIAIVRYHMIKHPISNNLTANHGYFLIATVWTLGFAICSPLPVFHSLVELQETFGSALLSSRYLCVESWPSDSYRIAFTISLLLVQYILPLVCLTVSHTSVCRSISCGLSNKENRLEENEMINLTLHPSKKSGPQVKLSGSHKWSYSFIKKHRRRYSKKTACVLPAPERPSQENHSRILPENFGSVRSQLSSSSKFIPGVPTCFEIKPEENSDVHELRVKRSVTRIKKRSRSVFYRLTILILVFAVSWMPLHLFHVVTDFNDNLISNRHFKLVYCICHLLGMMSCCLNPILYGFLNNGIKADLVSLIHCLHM
The experiment in a line: Binding at human neuropeptide Y Y5 receptor. The note with it: Table 8; read-out: hY5 Ki.
Description: as §4, §5, §1

T2 sequence (Q9EQD2 whole entry): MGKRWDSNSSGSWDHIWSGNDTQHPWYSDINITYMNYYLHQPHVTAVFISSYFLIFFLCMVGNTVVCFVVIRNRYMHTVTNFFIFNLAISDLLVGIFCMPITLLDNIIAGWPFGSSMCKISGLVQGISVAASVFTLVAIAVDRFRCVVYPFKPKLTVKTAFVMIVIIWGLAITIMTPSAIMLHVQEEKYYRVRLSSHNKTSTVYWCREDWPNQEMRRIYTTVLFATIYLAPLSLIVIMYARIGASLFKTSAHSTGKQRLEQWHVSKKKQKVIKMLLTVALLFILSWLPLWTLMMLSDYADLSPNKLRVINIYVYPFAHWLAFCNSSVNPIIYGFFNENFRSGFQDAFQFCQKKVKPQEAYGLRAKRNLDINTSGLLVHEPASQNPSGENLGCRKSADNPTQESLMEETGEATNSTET
T4 sequence (Q63380 1-617): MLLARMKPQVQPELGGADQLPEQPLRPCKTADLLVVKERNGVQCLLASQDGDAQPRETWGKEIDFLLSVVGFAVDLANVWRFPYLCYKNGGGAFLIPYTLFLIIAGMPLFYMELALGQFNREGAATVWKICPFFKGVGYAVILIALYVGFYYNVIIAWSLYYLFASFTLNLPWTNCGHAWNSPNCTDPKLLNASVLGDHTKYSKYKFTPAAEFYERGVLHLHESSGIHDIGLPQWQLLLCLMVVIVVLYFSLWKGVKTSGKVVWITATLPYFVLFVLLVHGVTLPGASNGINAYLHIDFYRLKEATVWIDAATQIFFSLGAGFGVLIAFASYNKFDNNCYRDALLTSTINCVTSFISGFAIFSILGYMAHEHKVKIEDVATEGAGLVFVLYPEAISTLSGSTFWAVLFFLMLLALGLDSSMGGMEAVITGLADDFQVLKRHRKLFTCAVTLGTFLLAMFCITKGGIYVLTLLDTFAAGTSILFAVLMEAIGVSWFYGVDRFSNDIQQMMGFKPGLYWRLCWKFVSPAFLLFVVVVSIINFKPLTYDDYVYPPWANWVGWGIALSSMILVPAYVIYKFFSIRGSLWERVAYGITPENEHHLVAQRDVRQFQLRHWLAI
T1 sequence (Q9EP86 whole entry): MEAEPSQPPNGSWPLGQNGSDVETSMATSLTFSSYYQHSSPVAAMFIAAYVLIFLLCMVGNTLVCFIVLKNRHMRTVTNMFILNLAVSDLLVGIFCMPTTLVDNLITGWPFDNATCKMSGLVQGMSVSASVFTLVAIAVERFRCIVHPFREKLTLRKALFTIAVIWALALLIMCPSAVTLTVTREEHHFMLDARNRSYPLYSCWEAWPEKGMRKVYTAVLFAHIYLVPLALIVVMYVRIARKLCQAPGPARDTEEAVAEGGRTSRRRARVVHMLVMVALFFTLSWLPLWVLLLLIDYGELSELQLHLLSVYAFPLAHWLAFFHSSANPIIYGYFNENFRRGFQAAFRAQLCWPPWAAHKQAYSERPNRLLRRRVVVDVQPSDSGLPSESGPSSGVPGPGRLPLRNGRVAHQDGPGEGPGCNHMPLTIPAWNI

What is called Ki is the dissociation constant of the complex between target and ligand, obtained from inhibition or displacement. `CCCCCc1ccc2nc(NC(=N)N)nc(C)c2c1` [Compound 2001A, N-(4-methyl-6-pentyl-2-quinazolinyl)guanidine]: the “rNPFF1 IA” value at rat NPFF1 receptor turned out to be 71% NPFF. In addition, on rat NPFF2 receptor, the “rNPFF2 IA” value is listed as 103% NPFF. Further, the “hNPFF2 IA” value at human NPFF2 receptor is reported as 84% NPFF. Besides, the Ki came out at 8.13 µM in experiment [1]; 1.16 µM in experiment [2]; 0.962 µM in experiment [3]; 0.808 µM in experiment [4]; 7.41 µM in [5]; 1.91 µM in experiment [6].

Take `CCC(C)c1ccc2nc(NC(=N)N)nc(C)c2c1` (stereo not drawn) [Compound 2002A, N-(6-sec-butyl-4-methyl-2-quinazolinyl)guanidine]: on rat NPFF1 receptor, the “rNPFF1 IA” value is given as 51% NPFF. Besides, the “rNPFF2 IA” value on rat NPFF2 receptor is 92% NPFF. Besides, the inhibitory constant (Ki) in experiment [1] came to 7.62 µM; in experiment [4], 0.713 µM; in experiment [5], 12.9 µM; in experiment [6], 3.33 µM.

For `CCc1ccc2nc(NC(=N)N)cc(C)c2c1` [Compound 4002A, N-(6-ethyl-4-methyl-2-quinolinyl)guanidine], on rat NPFF2 receptor, the “rNPFF2 IA” value worked out at 84% NPFF. In addition, the “hNPFF2 IA” value at human NPFF2 receptor was found to be 69% NPFF. In addition, the Ki was 12.8 µM in experiment [1], 0.267 µM in experiment [4], 10.4 µM in experiment [5] and 1.4 µM in [6].

Regarding `Cc1cc(NC(=N)N)nc2ccccc12` [Compound 6001A, N-(4-methyl-2-quinolinyl)guanidine], the Ki in experiment [2] was 12.7 µM; in experiment [3], 10.5 µM; on human Y1 receptor, greater than 50 µM; on human Y2 receptor it was greater than 50 µM; on human Y4 receptor it was 14.3 µM; at human Y5 receptor, 0.742 µM.
